# Measured values from US20250197388A1, “COMPOUNDS, PHARMACEUTICAL COMPOSITIONS AND METHODS FOR TREATING INFLAMMATORY BOWEL DISEASE” (FLAGSHIP PIONEERING INNOVATIONS VI, LLC, priority 2022, published 2025).
# Entries after “also recorded” stand apart in the source; their conditions may differ.
# How the values were obtained:
# [1] = system: Zymosan-induced production of IL-12p40 in monocyte-derived dendritic cells; experiment: Monocyte derived DC (MoDC) assay, Zymosan-induced IL-12p40 (Luminex/ELISA); format: cell-based, human
# From the text: (§1) Monocyte derived DC (MoDC) were differentiated from healthy human donor derived CD14+ monocytes. Commercially available freshly prepared Leukopaks were obtained from healthy blood donor and kept refrigerated on ice before spin centrifuged and the pelleted cells are rinsed and resuspended with MACS buffer (Miltenyi Biotec). Next, CD14+ monocytes were purified using MultiMACS™ Cell24 Separator-Plus instrumentation and reagents according to the manufacturer (Miltenyi Biotec) instructions. The resulting purified CD14^+ cell fraction was washed, enumerated, and subsequently cryopreserved for later use. At the experiment first day cryopreserved CD14′ cells were thawed, rinsed with culture media, and then resuspended in culture media principally composed of RPMI (Invitrogen) supplemented with 10% v/v heat inactivated FBS. For generation of MoDC, these CD14^+ cells were enumerated and seeded into 75 cm^2 tissue culture flasks in 30 mL of culture media supplemented with GM-CSF (40-100 ng/mL) and IL-4 (25 ng/mL). Every other day, half of the culture media was replaced with fresh media (containing the same cytokine supplementation) and after 6-7 days of culture, fully differentiated and matured MoDC were obtained as confirmed by conventional Immuno-phenotype markers (levels of expression or absence of surface CD80, CD83, CD86, CD209, HLA-DR, CD14 & CD64) that were verified by flow-cytometry. Fully differentiated (mature) MoDCs, were seeded into 96 flat-well plates and incubated with a various concentration of the compound described herein, or with control solution (DMSO), or with the pharmacologic inhibitors Cyclosporin-A (CsA) and BAY 61-3606 (which is a known inhibitor of Syk kinase) for 6 hours. Next, the MoDC culture well were added with Dectin-1(CLEC7a1)-ligand (Zymosan at 5 μg/mL), or the Toll-like receptor agonist R848, and further incubated for 18-20 hours. After incubation concluded, culture supernatants were collected, and the levels of inflammatory cytokines and chemokines was measured in a triplicate setting for each condition by Luminex® multiplex assay (FIG. 2) or by ELISA (FIG. 3).
# [2] = Compound interconversion monitored by 1H-NMR in neutral aqueous buffer; format: physicochemical; conditions: 37° C. in the neutral aqueous buffer
# Description: This examples provide the kinetics of compounds A-2 and A-3. More specifically, A-6 is a mixture of compounds A-2 and A-3 and interconvert in solutions.
# In this example, A-6 was combined with […] of Na3PO4, DCl, and D2O at a pH of 7-7.5. This solution was then monitored using 1H-NMR at 37° C.
# Interconversion between compounds A-2 and A-3 was seen and monitored for 5 days. See, Table 1.
# Dectin-1b = molecular target: T1, Dectin-1b (Homo sapiens, UniProt Q9BXN2); experiment: Dectin-1 assay, HEK-Blue Dectin-1b SEAP reporter cells stimulated with beta-glucan peptide (BGP); format: cell-based; conditions: for Activity: HEK-Blue Dectin-1b cells, compounds at 1, 10 or 30 μM for 6 hours, then BGP 30 μg/mL 16-18 hours, SEAP adjusted by cell viability
# T1 construct: host or cells: HEK-Blue Dectin-1b reporter cells (HEK293-derived)
# T1 sequence (Q9BXN2 1-201 isoform Q9BXN2-2): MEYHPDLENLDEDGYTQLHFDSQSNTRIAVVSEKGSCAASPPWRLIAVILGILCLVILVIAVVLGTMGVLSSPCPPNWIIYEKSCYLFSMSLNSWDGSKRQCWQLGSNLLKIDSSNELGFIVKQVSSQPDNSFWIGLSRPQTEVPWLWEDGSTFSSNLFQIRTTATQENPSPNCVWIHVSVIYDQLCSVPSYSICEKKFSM
# Description: Compounds described herein are added to mammalian cells for bioactivity assessment. The HEK-Blue Dectin-1b cells line (InVivoGen) releases a reporter protein (secreted embryonic alkaline phosphatase, SEAP) to the culture supernatant in response to Dectin-1 activation. HEK-Blue reporter cells were grown in DMEM culture media with 10% decomplemented fetal calf serum (InvivoGen, 1% Pen/Strep antibiotic (InvivoGen), 0.2% Normocin antibiotic (InvivoGen). On the day prior to the assay, cells were seeded in a 96 flat-bottom well plate at 50,000 cells/well and further incubated for 20 hours. On the day of the assay cells were incubated with 1 μM, 10 μM or 30 μM of the compounds described herein or with 1 μM of the SYKi IV Dectin-1b Inhibitor (Millipore) or with DMSO (vehicle control) for 6 hours, followed by the addition of beta-glucan peptide (BGP, a Dectin-1 ligand at 30 μg/mL) and incubation for 16-18 hours. After incubation was concluded, the cultures supernatants were collected and Dectin-1 related activity was assessed by measurement of the SEAP-reporter protein presence, using Quanti-Blue assay (Invivogen) and these values were adjusted by the Cell Viability levels that was assessed using the Cell-Titer-Glo2 Reagent (Promega).
# Results represent cell number adjusted SEAP levels in a triplicate setting for each condition and cell numbers and viability corrections reflected less than 5% corrections. See, e.g., FIG. 1 for compound A-3.
# [3] = system: R848-stimulated monocyte-derived dendritic cells; experiment: MoDC assay, R848-stimulated pro-inflammatory cytokines; format: cell-based, human; conditions: for Gro-α / IL-6 / IL-12p70 / IL-23 / IP-10 / MCP-1 / Mip-1α / TNFα: healthy human donor 14; for inhibition of pro-inflammatory cytokines (overall): healthy human donor 14 (FIGS. 10A-10H)
# From the text: as §1
# [4] = system: LPS-stimulated monocyte-derived dendritic cells; experiment: MoDC assay, LPS-stimulated pro-inflammatory cytokines; format: cell-based, human; conditions: for inhibition of pro-inflammatory cytokines (overall): healthy human donor 14 (FIGS. 9A-9H)
# [5] = system: LPS-induced IRF reporter activity; experiment: IRF assay, THP-1 dual reporter cell line (Lucia luciferase) stimulated with LPS; format: cell-based; conditions: for inhibition of LPS-induced IRF reporter activity: THP-1 dual reporter cells, LPS 25 ng/mL, compounds at 1 μM or 10 μM
# Description: Compounds described herein are added to mammalian cells for bioactivity assessment. The THP-1 dual reporter cell line (InVivoGen) secretes a reporter protein (Lucia luciferase or LUC) in response to activation by the pro-inflammatory bacterial component lipopolysaccharide (LPS). THP-1 dual reporter cells were grown in RPMI 1640 culture medium with 2 mM L-glutamine, 25 mM HEPES, 10% heat-inactivated fetal bovine serum, 100 µg/ml Normocin antibiotic (InvivoGen), Pen-Strep antibiotic (100 U/ml-100 […], InvivoGen). On the day of the assay, cells were seeded in a 96 flat-bottom well plate at 50,000 cells/well and incubated for 2 hours. Cells were then incubated with 1 μM or 10 μM of the compounds described herein or with 1 μM of KK-16 (Selleck), a potent inhibitor of IκB kinases (IKKs) or with DMSO (vehicle control) for 2 hours, followed by the addition of LPS at 25 ng/mL and incubation for 24 hours. After incubation was concluded, the cultures supernatants were collected and IRF related activity was assessed by measurement of the Lucia luciferase, using Quanti-Luc assay (InvivoGen) and these values were adjusted by the Cell Viability levels that was assessed using the Cell-Titer-Glo2 Reagent (Promega).
structure (smiles),measurement,setting,value
"CN1[C@@H](C(=O)O)CS[C@H]1[C@@H]1CSC(c2ccccc2O)=N1 (single isomer, unassigned) [Compound A-3]",inhibition of Zymosan-induced production of IL-12p40,"[1]; MoDC from healthy human donors 1, 2 and 3, 15.5 nM to 1 μM (FIGS. 6A-6C)",inhibition
same,concentration of maximal inhibition of Zymosan-induced IL-12p40,"[1]; donors 1, 2 and 3, the highest concentration tested",1 µM
same,inhibition of zymosan-induced IL-12p40,"[1]; primary human MoDC from healthy donors 5 and 6, 0.5 μM final concentration (FIGS. 11A, 11B)",does not achieve statistically significant inhibition
same,equilibrium ratio of interconversion,[2],about 1.5/1
same,time to nearly reach interconversion equilibrium,[2],about 7 hours
same,Activity,Dectin-1b,<30 µM
"CN1C([C@@H]2CSC(c3ccccc3O)=N2)SC[C@@H]1C(=O)O (stereo partly drawn) [Compound A6, (4S)-2-((S)-2-(2-hydroxyphenyl)-4,5-dihydrothiazol-4-yl)-3-methylthiazolidine-4-carboxylic acid]",Gro-α,[3],statistically significant decrease
same,IL-6,[3],statistically significant decrease
same,IL-12p70,[3],statistically significant decrease
same,IL-23,[3],statistically significant decrease
same,IP-10,[3],statistically significant decrease
same,MCP-1,[3],statistically significant decrease
same,Mip-1α,[3],statistically significant decrease
same,TNFα,[3],statistically significant decrease
same,inhibition of pro-inflammatory cytokines (overall),[3],inhibit several pro-inflammatory cytokines; also recorded: inhibition of pro-inflammatory cytokines
same,inhibition of BGP-induced Dectin-1b reporter gene activity / signaling,"Dectin-1b; HEK-Dectin-1b cells, range from 1 μM to 30 μM",dose-dependent inhibition
same,concentration of maximal inhibition of BGP-induced Dectin-1b activity,"Dectin-1b; range 1 μM to 30 μM, the maximum concentration tested",30 µM
same,Gro-α,[4]; healthy human donor 14,statistically significant decrease
same,IL-6,[4]; healthy human donor 14,statistically significant decrease
same,IL-12p70,[4]; healthy human donor 14,statistically significant decrease
same,IL-23,[4]; healthy human donor 14,statistically significant decrease
same,IP-10,[4]; healthy human donor 14,statistically significant decrease
same,MCP-1,[4]; healthy human donor 14,statistically significant decrease
same,Mip-1α,[4]; healthy human donor 14,statistically significant decrease
same,TNFα,[4]; healthy human donor 14,statistically significant decrease
same,inhibition of pro-inflammatory cytokines (overall),[4],inhibit several pro-inflammatory cytokines; also recorded: inhibition of pro-inflammatory cytokines
same,inhibition of LPS-induced IRF reporter activity,[5],shows inhibition of LPS-induced IRF reporter activity
same,statistical significance of inhibition of LPS-induced IRF reporter activity,[5]; tested at 1 μM (FIG. 8B),meets statistical significance
"CN1C(C2CSC(c3ccccc3O)=N2)SC[C@]1(C)C(=O)O (stereo partly drawn) [Compound B-1, (4S)-2-(2-(2-hydroxyphenyl)-4,5-dihydrothiazol-4-yl)-3,4-dimethylthiazolidine-4-carboxylic acid]",Activity,[1]; MoDC assay,<30 µM
same,Activity,Dectin-1b,<30 µM
"C#CCCC1(CCNC(=O)[C@H]2CS[C@H]([C@@H]3CSC(c4ccccc4O)=N3)N2C)N=N1 [Compound C-2, (4S)—N-[2-(3-but-3-ynyldiazirin-3-yl)ethyl]-2-[(4S)-2-(2-hydroxyphenyl)-4,5-dihydrothiazol-4-yl]-3-methyl-thiazolidine-4-carboxamide]",Activity,Dectin-1b,<30 µM
"CN1C(C2CSC(c3ccccc3O)=N2)SC[C@@H]1C(=O)O (stereo partly drawn) [Compound A-1, (4S)-2-(2-(2-hydroxyphenyl)-4,5-dihydrothiazol-4-yl)-3-methylthiazolidine-4-carboxylic acid]",Activity,Dectin-1b,<30 µM
"C#CCCC1(CCNC(=O)[C@H]2CS[C@@H]([C@@H]3CSC(c4ccccc4O)=N3)N2C)N=N1 [Compound C-3, (2S,4S)—N-(2-(3-(but-3-yn-1-yl)-3H-diazirin-3-yl)ethyl)-2-((S)-2-(2-hydroxyphenyl)-4,5-dihydrothiazol-4-yl)-3-methylthiazolidine-4-carboxamide]",Activity,Dectin-1b,<30 µM
C#CCCC1(CCOC(=O)[C@H]2CSC(C3CSC(c4ccccc4O)=N3)N2C)N=N1 (stereo partly drawn) [Compound D-1],Activity,Dectin-1b,<30 µM
C#CCCC1(CCNC(=O)[C@H]2CSC(C3CSC(c4ccccc4O)=N3)N2C)N=N1 (some centres unmarked) [Compound C-1],Activity,Dectin-1b,<30 µM
"CN1[C@@H](C(=O)O)CS[C@H]1[C@H]1CSC(c2ccccc2)=N1 (single isomer, unassigned) [Compound F-2]",Activity,Dectin-1b,<30 µM
"CN1C([C@H]2CSC(c3ccccc3O)=N2)SC[C@H]1C(=O)O (stereo partly drawn) [Compound I-100, (4R)-2-((R)-2-(2-hydroxyphenyl)-4,5-dihydrothiazol-4-yl)-3-methylthiazolidine-4-carboxylic acid]",Gro-α,[3],statistically significant decrease
same,IL-6,[3],statistically significant decrease
same,IL-12p70,[3],statistically significant decrease
same,IL-23,[3],statistically significant decrease
same,IP-10,[3],statistically significant decrease
same,MCP-1,[3],statistically significant decrease
same,Mip-1α,[3],statistically significant decrease
same,TNFα,[3],statistically significant decrease
same,inhibition of pro-inflammatory cytokines (overall),[3],inhibit several pro-inflammatory cytokines; also recorded: inhibition of pro-inflammatory cytokines
same,Gro-α,[4]; healthy human donor 14,statistically significant decrease
same,IL-6,[4]; healthy human donor 14,statistically significant decrease
same,IL-12p70,[4]; healthy human donor 14,statistically significant decrease
same,IL-23,[4]; healthy human donor 14,statistically significant decrease
same,MCP-1,[4]; healthy human donor 14,statistically significant decrease
same,Mip-1α,[4]; healthy human donor 14,statistically significant decrease
same,TNFα,[4]; healthy human donor 14,statistically significant decrease
same,inhibition of pro-inflammatory cytokines (overall),[4],inhibit several pro-inflammatory cytokines; also recorded: inhibition of pro-inflammatory cytokines
same,inhibition of LPS-induced IRF reporter activity,[5],shows inhibition of LPS-induced IRF reporter activity
same,statistical significance of inhibition of LPS-induced IRF reporter activity,[5]; tested at 1 and 10 μM (FIG. 8A),does not meet statistical significance
"C[C@]1(C(=O)O)CSC(C2CSC(c3ccccc3O)=N2)N1 (stereo partly drawn) [Compound E-1, (4S)-2-(2-(2-hydroxyphenyl)-4,5-dihydrothiazol-4-yl)-4-methyl-thiazolidine-4-carboxylic acid]",Activity,Dectin-1b,<30 µM
